Converted amounts (≈) assume the structure as drawn.
Legend:
Type in all cases: physicochemical
[1] = XRPD, NMR and LC-MS of Compound 1 before and after jet milling
Protocol: X-ray powder diffraction (XRPD) data were collected using a Bruker D8 Advance powder diffractometer. The samples were irradiated with copper K-alpha X-rays (λ=1.54179 Å) with the generator operating at 40 kV/40 mA. The samples were scanned in continuous mode from 3° to 40° (2 θ) with a sample rotation speed of 15 rpm and a scanning rate of 10°/min.
Proton NMR (^1H-NMR), Florine NMR (^19F-NMR) and LC-MS analyses were also carried out on Compound 1 before jet milling and after jet milling.

[2] = Kinetic solubility of amorphous solid dispersions (ASD) in FaSSIF
Protocol: Amorphous solid dispersion including Compound 1 was prepared with a mixture of Compound 1 and polymer. Nine ASD formulations were prepared using for screening 9 different polymers as the solid dispersant (PVPK30, PVPVA64, Soluplus, HPMC E5, HPMC ASMG, HPMC ASMF, HPMC ASHG, Eudragit EPO, Eudragit L100). About 10 mg of Compound 1 and 40 mg of corresponding polymer were weighed into 40-mL glass vials, and dissolved in 1 mL of MeOH/DCM (1:1, v/v) to prepare stock solution. […] The product after evaporation was dried under vacuum at 30° C. overnight and further characterized by appearance, PLM, XRPD and mDSC.
The nine ASD formulations were tested for kinetic solubility in FaSSIF at the concentration of 2 mg/mL. The experiment was run at 37° C. with the rate of 450 rpm. 0.5 mL of the mixture was taken out at each time point and centrifuged before running UPLC (a shortened runtime version of the described HPLC method was used to determine the Compound 1 levels).

[3] = Stability of suspension formulations in methylcellulose/Poloxamer 188 vehicles (appearance, concentration, purity, PSD); set-up: key: *: homogeneous suspension initially, sedimentation occurred over time and returned to homogeneous after gentle agitation for ~1 min; #: viscous homogeneous suspension initially, sedimentation occurred over time and returned to homogeneous after gentle agitation for ~2 mins; settings: 96 h at RT
Protocol: As shown in Tables 9-11, various suspension formulations were tested for stability under different conditions.
To prepare a suspension weigh required amount of milled Compound 1 into a glass container and add corresponding volume of the vehicle. Thoroughly disperse the compound into a homogenous suspension using an overhead mixer at the final concentration target. Concentrations were prepared at 0.1 mg/mL and at 10 mg/mL. The suspension products were physically evaluated on visual appearance, concentration, purity and PSD.
The vehicles are prepared by dissolving 0.5% by weight of either 400 cP methylcellulose or 4000 cP methylcellulose and 0.2% Poloxamer 188. For the preserved suspensions, additionally 1.0% by volume of paraben preservative solution was dissolved into vehicle using an overhead mixer. The paraben preservative solution was prepared by dissolving 0.10 g methyl paraben, 0.025 g propylparaben in 9.875 g propylene glycol dissolved by mixing with a stir bar at room temperature for 1 hour.

physical form change (XRPD) ([1]; after jet-milling): no physical form change
solubility kinetic at 15 min ([2]; FaSSIF, thermodynamic from solid, 2 mg/mL, 37° C., 450 rpm, 15 min): 5.7 µg/mL (≈ 14 µM)
solubility kinetic at 30 min ([2]; FaSSIF, thermodynamic from solid, 2 mg/mL, 37° C., 450 rpm, 30 min): 8.1 µg/mL (≈ 19.9 µM)
solubility kinetic at 60 min ([2]; FaSSIF, thermodynamic from solid, 2 mg/mL, 37° C., 450 rpm, 60 min): 7.1 µg/mL (≈ 17.4 µM)
solubility kinetic at 120 min ([2]; FaSSIF, thermodynamic from solid, 2 mg/mL, 37° C., 450 rpm, 120 min): 11.6 µg/mL (≈ 28.5 µM)
Final pH ([2]; kinetic solubility test in FaSSIF): 6.54
Visual Appearance ([3]; 0.5% 400 cP MC, 0.2% Poloxamer 188, 0.1 mg/mL): *
Visual Appearance ([3]; 0.5% 400 cP MC, 0.2% Poloxamer 188, 10 mg/mL): *
Visual Appearance ([3]; 0.5% 400 cP MC, 0.2% Poloxamer 188 and 1.0% of paraben preservative solution, 0.1 mg/mL): *
Visual Appearance ([3]; 0.5% 400 cP MC, 0.2% Poloxamer 188 and 1.0% of paraben preservative solution, 10 mg/mL): *
Visual Appearance ([3]; 0.5% 4000 cP MC, 0.2% Poloxamer 188, 0.1 mg/mL): #
Visual Appearance ([3]; 0.5% 4000 cP MC, 0.2% Poloxamer 188, 10 mg/mL): #
Visual Appearance ([3]; 0.5% 4000 cP MC, 0.2% Poloxamer 188 and 1.0% of paraben preservative solution, 0.1 mg/mL): #
Visual Appearance ([3]; 0.5% 4000 cP MC, 0.2% Poloxamer 188 and 1.0% of paraben preservative solution, 10 mg/mL): #
SMILES: CCOC(F)(F)c1nnc2cnc(-c3cnc(OCC(F)(F)F)c(F)c3)cn12 [Compound 1, 3-(ethoxydifluoromethyl)-6-(5-fluoro-6-(2,2,2-trifluoroethoxy)pyridin-3-yl)-[1,2,4]triazolo[4,3-a]pyrazine]
chemical or structural change (NMR, LC-MS) ([1]; due to jet milling): no observed chemical or structural change
